One experiment deals with T1, PIM-2 (Homo sapiens, UniProt Q9P1W9). Briefly: PIM-2 assay, IC50 determination (luciferase-luciferin ATP depletion, 10-point dose response). The experiment is classed as biochemical. As to conditions: 10 nM PIM-2, 1 μM ATP, 50 μM peptide substrate, 15 minutes at room temperature.
T1 sequence (Q9P1W9 whole entry): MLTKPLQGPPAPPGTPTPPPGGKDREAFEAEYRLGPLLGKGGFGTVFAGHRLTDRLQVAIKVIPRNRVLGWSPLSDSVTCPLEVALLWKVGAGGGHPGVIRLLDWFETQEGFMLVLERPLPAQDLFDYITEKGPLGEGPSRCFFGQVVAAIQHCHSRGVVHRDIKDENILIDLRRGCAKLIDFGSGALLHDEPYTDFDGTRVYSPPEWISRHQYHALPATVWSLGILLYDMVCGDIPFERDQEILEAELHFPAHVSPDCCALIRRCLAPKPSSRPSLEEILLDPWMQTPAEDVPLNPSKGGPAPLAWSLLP
Protocol: The screen utilizes the Zymark Allegro UHTS system to dispense reagents, buffers and test compounds. To Greiner 384-well, white Lumitrac-200 plates, 20 μL/well of 20 nM PIM-2 (10 nM final assay concentration) in assay buffer (25 mM HEPES, pH 7.5, 10 mM MgCl2, 50 mM KCl, 0.2% CHAPS, 100 μM Na3VO4, 0.2% BSA and 200 μM TCEP) is delivered, followed by 10 μL/well of test compounds (3 μg/mL final assay concentration in 1% DMSO) that were previously dissolved in DMSO and diluted in assay buffer. A 10 μL volume of a solution containing 4 μM ATP (1 μM final assay concentration) and 20 μM peptide substrate (Biotin-[sequence], 5 μM final assay concentration) diluted in assay buffer is added to each well and the contents of the wells are mixed. […] Positive control wells receive 10 μL/well of assay buffer in lieu of compound. The kinase reaction mixture is incubated for 60 minutes at room temperature. A 40 μL/well of ATP detection reagent is then added to the reaction mixture. The assay plates are read on an Analyst (Molecular Devices) in luminescence mode following additional 15 minutes of incubation at room temperature. Luminescence signals are converted to percent of control (POC) values using the formula: POC=(BCTRL−Signal)÷(BCTRL−PCTRL), where Signal is the test well signal, BCTRL is the average of background control well signals on the plate and PCTRL is the average of positive control well signals on the plate.
The IC50 of the compounds is determined with a modification of the above method. The assay is performed in 96-well Lumitrac-200, white, plates. Test compounds dissolved in DMSO (5 mg/mL) are serially diluted 1 to 3 in DMSO for 10-point dose response. The DMSO dilutions are further diluted in the assay buffer and 15 μL of this dilution is added to the assay plate, for a final starting assay concentration of 5 μg/mL in 1% DMSO. A 15 μL volume of 40 nM PIM-2 followed by 30 μL of a solution containing 2 μM ATP and 100 μM peptide substrate, all diluted in assay buffer, is added to each well for a final assay concentration of 10 nM PIM-2, 1 μM ATP, and 50 μM peptide substrate. The kinase reaction mixture is incubated for 15 minutes at room temperature. A 60 μL/well of ATP detection reagent is then added to the reaction mixture. The assay plates are read on an Analyst (Molecular Devices) in luminescence mode following additional 15 minutes of incubation at room temperature. IC50 is determined by fitting the POC of the dose response data to a 4-parameter logistic equation.
One may read the IC50 as the concentration that inhibits the measured activity by half. As to `NCC1CCN(c2cncc(-c3cccc(/C=C/C(=O)O)c3)n2)CC1` [compound 22, (E)-3-{3-[6-(4-Aminomethyl-piperidin-1-yl)-pyrazin-2-yl]-phenyl}-acrylic acid], the IC50 is 21 nM.

In turn, `CN1CCCN(c2cncc(-c3cccc(/C=C/C#N)c3)n2)CC1` [compound 42, (E)-3-{3-[6-(4-Methyl-[1,4]diazepan-1-yl)-pyrazin-2-yl]-phenyl}-acrylonitrile] showed an IC50 of 13000 nM. In turn, `O=C(O)/C=C/c1cccc(-c2cncc(NCCO)n2)c1` [compound 17, (E)-3-{3-[6-(2-Hydroxy-ethylamino)-pyrazin-2-yl]-phenyl}-acrylic acid] yielded an IC50 of 300 nM. On to `NC(=O)CNc1cncc(-c2cccc(/C=C/C(=O)O)c2)n1` [compound 15, (E)-3-{3-[6-(Carbamoylmethyl-amino)-pyrazin-2-yl]-phenyl}-acrylic acid], for which the IC50 was found to be 84 nM.

On to `COCCCNc1cncc(-c2cccc(/C=C/C(=O)O)c2)n1` [compound 19, (E)-3-{3-[6-(3-Methoxy-propylamino)-pyrazin-2-yl]-phenyl}-acrylic acid], for which the midpoint of inhibition, the IC50, lay at 480 nM. On the same count and under the same terms, the value for `O=C(O)/C=C/c1cccc(-c2cncc(N3CCCNCC3)n2)c1` [compound 27, (E)-3-[3-(6-[1,4]Diazepan-1-yl-pyrazin-2-yl)-phenyl]-acrylic acid] was 185 nM. `NCCNc1cncc(-c2cccc(/C=C/C(=O)O)c2)n1` [compound 12, (E)-3-{3-[6-(2-Amino-ethylamino)-pyrazin-2-yl]-phenyl}-acrylic acid] returned an IC50 of 140 nM. Regarding `O=C(O)/C=C/c1cccc(-c2cncc(NCC3CCNCC3)n2)c1` [compound 4, (E)-3-(3-{6-[(Piperidin-4-ylmethyl)-amino]-pyrazin-2-yl}-phenyl)-acrylic acid], half-maximal inhibition (IC50) was put at 57 nM. Compared with the last molecule, the IC50 is about 2.5-fold lower. Take `CN1CCCN(c2cncc(-c3cccc(/C=C/c4nnn[nH]4)c3)n2)CC1` [compound 43, 1-Methyl-4-(6-{3-[(E)-2-(1H-tetrazol-5-yl)-vinyl]-phenyl}-pyrazin-2-yl)-[1,4]diazepane]: the IC50 worked out at 89 nM. As to `CN1CCCN(c2cncc(-c3cncc(/C=C/C(=O)O)c3)n2)CC1` [compound 37, (E)-3-{5-[6-(4-Methyl-[1,4]diazepan-1-yl)-pyrazin-2-yl]-pyridin-3-yl}-acrylic acid], the IC50 amounted to 385 nM. For `COC(=O)/C=C/c1cccc(-c2cncc(N3CCCN(C)CC3)n2)c1` [compound 39, (E)-3-{3-[6-(4-Methyl-[1,4]diazepan-1-yl)-pyrazin-2-yl]-phenyl}-acrylic acid methyl ester], the IC50 is 1400 nM. Same read-out and setting: the value for `CC(=O)N1CCCN(c2cncc(-c3cccc(/C=C/C(=O)O)c3)n2)CC1` [compound 31, (E)-3-{3-[6-(4-Acetyl-[1,4]diazepan-1-yl)-pyrazin-2-yl]-phenyl}-acrylic acid] was 880 nM; that for `O=C(O)/C=C/c1cccc(-c2cncc(NCCCO)n2)c1` [compound 18, (E)-3-{3-[6-(3-Hydroxy-propylamino)-pyrazin-2-yl]-phenyl}-acrylic acid] was 310 nM; that for `CN1CCCN(c2cncc(-c3cccc(CCC(=O)O)c3)n2)CC1` [compound 38, 3-[3-[6-(4-Methyl-[1,4]diazepan-1-yl)-pyrazin-2-yl]-phenyl]-propionic acid] was 1400 nM.

The molecule `CN(C)CCNc1cncc(-c2cccc(/C=C/C(=O)O)c2)n1` [compound 9, (E)-3-{3-[6-(2-Dimethylamino-ethylamino)-pyrazin-2-yl]-phenyl}-acrylic acid] displayed an IC50 of 99 nM. `CN(C)CCCNc1cncc(-c2cccc(/C=C/C(=O)O)c2)n1` [compound 8, (E)-3-{3-[6-(3-Dimethylamino-propylamino)-pyrazin-2-yl]-phenyl}-acrylic acid] returned an IC50 of 94 nM. This IC50 and that of the molecule before are within 1.5-fold of each other. Turning to `O=C(O)/C=C/c1cccc(-c2cncc(N[C@H]3CC[C@H](O)CC3)n2)c1` [compound 3, (E)-3-{3-[6-(4-Hydroxy-cyclohexylamino)-pyrazin-2-yl]-phenyl}-acrylic acid], the IC50 was found to be 265 nM. Against the preceding molecule, the IC50 is about 2.8-fold higher.

On to `O=C(O)/C=C/c1cccc(-c2cncc(N3CCNCC3)n2)c1` [compound 28, (E)-3-[3-(3,4,5,6-Tetrahydro-2H-[1,2′]bipyrazinyl-6′-yl)-phenyl]-acrylic acid], for which the IC50 is 200 nM. The IC50 values of the last two molecules are within 1.5-fold of each other. The molecule `CN(C)CCCN(C)c1cncc(-c2cccc(/C=C/C(=O)O)c2)n1` [compound 14, (E)-3-(3-{6-[(3-Dimethylamino-propyl)-methyl-amino]-pyrazin-2-yl}-phenyl)-acrylic acid] showed an IC50 of 370 nM.

With `NC1CCN(c2cncc(-c3cccc(/C=C/C(=O)O)c3)n2)CC1` [compound 25, (E)-3-{3-[6-(4-Amino-piperidin-1-yl)-pyrazin-2-yl]-phenyl}-acrylic acid], the midpoint of inhibition, the IC50, lay at 115 nM.

Molecule `CN1CCN(c2cncc(-c3cccc(/C=C/C(=O)O)c3)n2)CC1` [compound 26, (E)-3-[3-(4-Methyl-3,4,5,6-tetrahydro-2H-[1,2′]bipyrazinyl-6′-yl)-phenyl]-acrylic acid] came in with an IC50 of 150 nM. Turning to `O=C(O)/C=C/c1cccc(-c2cncc(N3CCCN(Cc4ccccc4)CC3)n2)c1` [compound 29, (E)-3-{3-[6-(4-Benzyl-[1,4]diazepan-1-yl)-pyrazin-2-yl]-phenyl}-acrylic acid], 230 nM corresponded to half-maximal inhibition (IC50). In turn, `CC(C)(CN)CNc1cncc(-c2cccc(/C=C/C(=O)O)c2)n1` [compound 7, (E)-3-{3-[6-(3-Amino-2,2-dimethyl-propylamino)-pyrazin-2-yl]-phenyl}-acrylic acid] displayed an IC50 of 27 nM.

The experiment is the same for the next values; noted with them: percent of control at 5 μg/mL (final starting assay concentration of dose response).
Take `CN1CCCN(c2cncc(-c3cccc(/C=C/CO)c3)n2)CC1` [compound 41, (E)-3-{3-[6-(4-Methyl-[1,4]diazepan-1-yl)-pyrazin-2-yl]-phenyl}-prop-2-en-1-ol]: the “POC @ 5 μg/mL” value turned out to be 69POC @ 5 μg/mL.

The next experiment deals with T1, PIM-2. In words: PIM-2 assay, single-concentration screen (luciferase-luciferin ATP depletion). The experiment is classed as biochemical. The settings on record: percent of control at 3 μg/mL final assay concentration, 1 μM ATP, 5 μM peptide substrate, 60 minutes. As for the experimental part:
The activity of PIM-2 is measured using luciferase-luciferin based ATP detection reagent to quantify ATP depletion resulting from kinase-catalyzed phosphoryl transfer to a peptide substrate. The screen utilizes the Zymark Allegro UHTS system to dispense reagents, buffers and test compounds. To Greiner 384-well, white Lumitrac-200 plates, 20 μL/well of 20 nM PIM-2 (10 nM final assay concentration) in assay buffer (25 mM HEPES, pH 7.5, 10 mM MgCl2, 50 mM KCl, 0.2% CHAPS, 100 μM Na3VO4, 0.2% BSA and 200 μM TCEP) is delivered, followed by 10 μL/well of test compounds (3 μg/mL final assay concentration in 1% DMSO) that were previously dissolved in DMSO and diluted in assay buffer. A 10 μL volume of a solution containing 4 μM ATP (1 μM final assay concentration) and 20 μM peptide substrate (Biotin-[…], 5 μM final assay concentration) diluted in assay buffer is added to each well and the contents of the wells are mixed. […] The assay plates are read on an Analyst (Molecular Devices) in luminescence mode following additional 15 minutes of incubation at room temperature. Luminescence signals are converted to percent of control (POC) values using the formula: POC=(BCTRL−Signal)÷(BCTRL−PCTRL), where Signal is the test well signal, BCTRL is the average of background control well signals on the plate and PCTRL is the average of positive control well signals on the plate.
Consider `CN1CCCN(c2cncc(-c3cccc(/C=C/C(=O)NCCO)c3)n2)CC1` [compound 45, (E)-N-(2-Hydroxy-ethyl)-3-{3-[6-(4-methyl-perhydro-1,4-diazepin-1-yl)-pyrazin-2-yl]-phenyl}-acrylamide], for which the “POC @ 3 μg/mL” value was determined as 63 POC @ 3 μg/mL.

The values above are taken from patent publication US8318723B2, “Pyrazine compounds, their use and methods of preparation” (Boehringer Ingelheim International GmbH, priority 2006, dated 2012).
